Data on two compounds can be found in article PMC12362587, “Untargeted Diversity-Oriented Synthesis for the Discovery of New Antitumor Agents: An Integrated Approach of Inverse Virtual Screening, Bioinformatics, and Omics for Target Deconvolution” (Journal of Medicinal Chemistry, 2025).

Structures are written as SMILES.

Usually EC50 stands for the concentration that produces a half-maximal response.

In one test the test system is A375. In words: MTT cell viability assay. Type of test: cell-based. The settings on record: Homo sapiens, A-375, 24 h, compounds 0.01–40 μM, read-out: In Vitro Cytotoxicity, EC50 ± SD, A375. An excerpt:
(§1) Initially, we phenotypically screened the synthesized compounds over a panel of tumor cell lines composed of HEPG2, A375, SHSY5Y, MCF7, and A549 derived from liver tumor, melanoma, neuroblastoma, breast cancer, and lung adenocarcinoma, respectively. We also considered the HaCaT cell line, coming from keratinocytes, as a healthy control line. As reference, cytotoxic chemotherapeutic agent 5-fluorouracil (5-FU) has been used. The results obtained performing the MTT (3-(4,5-dimethylthiazolyl-2)-2,5-diphenyltetrazolium bromide) assay are summarized in Table .
(§2) The human neuroblastoma SHSY5Y, melanoma A375, human breast cancer MCF7, nonsmall lung cancer A549, and human epidermal keratinocyte HaCaT cell lines were obtained from ATCC and were grown in Dulbecco’s Modified Eagle Medium (DMEM) supplemented with 10% (v/v) FBS, 2 mM L-glutamine, 100 U/mL penicillin, and 0.1 mg/mL streptomycin.
(§3) Cell viability was established by measuring mitochondrial metabolic activity with MTT. In brief, HEPG2 (1 × 10^4 cells/well), A375 (2 × 10^3 cells/well), HaCaT (3 × 10^3 cells/well), A549 (3 × 10^3 cells/well), SHSY5Y (2 × 10^4 cells/well), and MCF 7 (5 × 10^3 cells/well) were plated into 96-well plates for 24 h, then the compounds (0.01–40 μM) were added. After 24h, cells were replaced with a fresh medium containing 0.5 mg/mL MTT. Cells were incubated 1–3 h at 37 °C, then the medium was discarded, and formazan blue crystals in the cells were dissolved in 100 μL per well of a solution containing isopropanol/HCl 0.1 M. The absorbance was measured at 570 nm using a microplate reader (Multiskan Go, Thermo Scientific, Waltham, MA, USA). Cell viability was expressed as a percentage relative to the untreated cells cultured in medium with 0.1% DMSO and set to 100%, whereas 10% DMSO was used as positive control and set to 0% of viability. The EC50 values were calculated using GraphPad Prism 8.0 software by nonlinear regression of dose–response inhibition.

A further test has as its system A549. Nature of the test: MTT cell viability assay. It counts as cell-based. The note with it: Homo sapiens, 24 h, compounds 0.01–40 μM, read-out: In Vitro Cytotoxicity, EC50 ± SD, A549.
Description: as §1, §2, §3
A general note: Tetrazolium dyes change colour on reduction, which living cells bring about.

For another test, the system named is MCF7. Nature of the test: MTT cell viability assay. It counts as cell-based. The settings on record: Homo sapiens, 24 h, compounds 0.01–40 μM, read-out: In Vitro Cytotoxicity, EC50 ± SD, MCF7.
Description: as §1, §2, §3

A further test relates to SHSY5Y. Nature of the test: MTT cell viability assay. It counts as cell-based. The settings on record: Homo sapiens, SH-SY5Y, 24 h, compounds 0.01–40 μM, read-out: In Vitro Cytotoxicity, EC50 ± SD, SHSY5Y.
Description: as §1, §2, §3

The next test deals with T1, BRD4(BD1) (Homo sapiens, UniProt O60885).
T1 construct: purchased BPS Bioscience (printed as 'BSP') 32514
In words: BRD4 (BD1) Inhibitor Screening Assay Kit (AlphaScreen). It counts as binding. The note with it: read-out: EC50 or IC50, bromodomain-containing protein 4. In general terms: Bead proximity is the source of the signal in Alpha formats.

For the next test, the target named is T2, A1 Human Adenosine GPCR (Homo sapiens, UniProt P30542).
T2 construct: Eurofins (contract assay)
T2 sequence (P30542 1-326): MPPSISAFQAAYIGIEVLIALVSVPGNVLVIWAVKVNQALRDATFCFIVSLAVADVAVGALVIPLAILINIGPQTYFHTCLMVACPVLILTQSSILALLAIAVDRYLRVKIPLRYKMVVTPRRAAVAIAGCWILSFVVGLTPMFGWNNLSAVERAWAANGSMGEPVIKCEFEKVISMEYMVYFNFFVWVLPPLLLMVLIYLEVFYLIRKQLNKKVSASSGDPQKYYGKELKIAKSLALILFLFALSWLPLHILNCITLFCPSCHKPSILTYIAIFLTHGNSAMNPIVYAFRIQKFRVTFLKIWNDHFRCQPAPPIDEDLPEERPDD
Nature of the test: Binding Agonist Radioligand LeadHunter Assay. The note with it: Eurofins, read-out: EC50 or IC50, A1 Human Adenosine GPCR, agonist radioligand. An excerpt:
(§4) For displacement assays on G-protein coupled receptor 55 (GPR55), Vasopressin V2 receptor (V2R), Adenosine A1 receptor (A1AR), Fibroblast growth factor receptor 1 (FGFR1), Vascular endothelial growth factor receptor 2 (VEGFR2), Platelet-derived growth factor receptor beta (PDGFRB), Vascular endothelial growth factor receptor 1 (VEGFR1), Thromboxane Synthase (TXS) and Phosphodiesterase 10A (PDE10A), we commissioned the Eurofins company which employed its specific experimental methods, accessible at the link: https://www.eurofins.com/.

Test [1] has as its target T3, V2 Human Vasopressin/Oxytocin GPCR (Homo sapiens, UniProt P30518).
T3 construct: Eurofins (contract assay)
In words: Binding Agonist Radioligand LeadHunter Assay. The note with it: Eurofins, read-out: EC50 or IC50, V2 Human Vasopressin/Oxytocin GPCR.
Description: as §4

Another test concerns the target T4, Phosphodiesterase 10A2 (Homo sapiens, UniProt Q9Y233).
T4 construct: Eurofins (contract assay)
Nature of the test: Enzymatic LeadHunter Assay. Type of test: biochemical. The note with it: Eurofins enzymatic; read-out: EC50 or IC50, Phosphodiesterase 10A2.
Description: as §4

The subject of test [2] is A375 cells. In words: Annexin V-FITC staining (apoptosis, flow cytometry). It counts as cell-based, human. The settings on record: 72 h. The method, then: Given the cytotoxic role of the compounds, an annexin V-FITC staining was performed to evaluate their effects on cell apoptosis.
Apoptosis of the cells was assessed using the Annexin V-FITC/PI reagents. A375 cells (3 × 10^4 cells/well) were seeded into 24-well plates and incubated for 72 h with compounds (5, 2.5, and 1.25 μM). After treatment, the collected cells were resuspended in a 100 μL assay buffer, then 5 μL Annexin V-FITC and 1 μL PI reagents were added following an incubation for 20 min at room temperature according to the manufacturer’s protocol (Dead Cell Apoptosis Kits with Annexin V for Flow Cytometry, Thermo Fisher Scientific). Cells were analyzed with a Becton Dickinson FACScan flow cytometer using the Cell Quest software, version 4 (Franklin Lakes, NJ, USA).
(In general: In flow cytometry, cells or beads pass a laser one at a time.)

For test [3], the system named is A375 cells. In words: Thioflavin T (ThT) protein misfolding assay. It counts as cell-based, human. The settings on record: 24 h, 31: 10, 5, 2.5 μM, 63: 20, 10, 5 μM. The method, then:
Protein misfolding was analyzed using ThT, (Sigma-Aldrich, St. Louis, MO, USA) staining. A375 cells (5 × 10^3 cells/well) were grown in 96-well plates and allowed to adhere for 24 h. Later the medium was replaced, and cells were treated with compounds (31: 10, 5, and 2.5 μM; 63: 20, 10, and 5 μM), for 24 h. After treatments, the culture medium was replaced, cells washed twice with PBS and then suspended in 100 μL ThT (20 μM). After washing, a staining solution containing 20 μM ThT in PBS was added for 30 min at 37 °C in the dark. The stained cells were washed, and representative images were acquired using ZOE Fluorescent Cell Imaging System (Magnification, 20×). Quantitative analyses were performed reading the fluorescence signals (excitation/emission 450 nm/482 nm) using a PerkinElmer EnSpire multimode plate reader (PerkinElmer, Waltham, MA, USA).

T4 sequence (Q9Y233 267-1055): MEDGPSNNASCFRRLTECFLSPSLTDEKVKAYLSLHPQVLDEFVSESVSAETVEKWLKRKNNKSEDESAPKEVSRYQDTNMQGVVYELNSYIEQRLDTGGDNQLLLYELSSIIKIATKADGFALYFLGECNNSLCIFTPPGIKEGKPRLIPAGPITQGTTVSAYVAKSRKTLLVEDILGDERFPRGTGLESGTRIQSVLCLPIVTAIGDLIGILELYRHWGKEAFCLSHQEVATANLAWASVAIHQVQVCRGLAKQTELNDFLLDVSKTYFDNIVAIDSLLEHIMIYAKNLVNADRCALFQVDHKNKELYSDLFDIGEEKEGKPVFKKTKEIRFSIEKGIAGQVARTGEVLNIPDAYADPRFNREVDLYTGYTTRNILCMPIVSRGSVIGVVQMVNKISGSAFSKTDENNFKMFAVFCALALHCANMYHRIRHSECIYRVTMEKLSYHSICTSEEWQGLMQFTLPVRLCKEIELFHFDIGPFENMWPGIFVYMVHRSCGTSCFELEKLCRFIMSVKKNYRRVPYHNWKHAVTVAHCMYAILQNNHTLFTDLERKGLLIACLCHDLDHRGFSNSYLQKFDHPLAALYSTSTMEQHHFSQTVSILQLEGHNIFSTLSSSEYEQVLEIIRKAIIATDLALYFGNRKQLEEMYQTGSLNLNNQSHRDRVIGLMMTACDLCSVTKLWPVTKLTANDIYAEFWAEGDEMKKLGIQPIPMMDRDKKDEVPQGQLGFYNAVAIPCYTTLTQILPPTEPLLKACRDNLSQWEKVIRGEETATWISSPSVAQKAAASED
T3 sequence (P30518 whole entry): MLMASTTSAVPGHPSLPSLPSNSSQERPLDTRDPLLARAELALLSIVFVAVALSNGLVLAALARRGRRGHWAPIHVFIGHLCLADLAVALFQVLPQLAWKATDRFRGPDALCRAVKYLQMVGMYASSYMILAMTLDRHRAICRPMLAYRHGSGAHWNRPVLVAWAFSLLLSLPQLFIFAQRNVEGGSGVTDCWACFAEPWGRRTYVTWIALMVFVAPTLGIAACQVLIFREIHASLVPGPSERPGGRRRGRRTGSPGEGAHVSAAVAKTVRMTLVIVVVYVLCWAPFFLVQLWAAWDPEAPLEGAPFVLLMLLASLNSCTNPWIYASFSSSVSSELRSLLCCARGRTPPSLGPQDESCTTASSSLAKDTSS
Description for BRD4(BD1): Compounds were first tested in triplicate at a concentration of 10 μM, using (+)-JQ1 as reference compound.
After that, 10 μL of acceptor and donor beads (250-fold diluted) were added, protecting them from light. The results were measured 60 min later using the Enspire microplate analyzer (PerkinElmer, California, USA). Each compound was tested in triplicate, and GraphPad Prism (version 8.0) was used to analyze the data, employing the equation log­(inhibitor) vs normalized response-variable slope

Consider `CC(C)C[C@H]1C(=O)N(Cc2ccc(C(F)(F)F)cc2)c2ccccc2C(=O)N1Cc1ccc(C(F)(F)F)cc1` [Compound 31, (S)-3-Isobutyl-1,4-bis(4-(trifluoromethyl)benzyl)-3,4-dihydro-1H-benzo[e][1,4]diazepine-2,5-dione], for which the EC50 in the test with A375 is 0.65 ± 0.4 µM; in the test on A549, more than 40 µM; in the test with MCF7, 17.3 ± 2.38 µM; in the test on SHSY5Y, more than 40 µM. In addition, the IC50 on BRD4(BD1) is 1.19 ± 0.29 µM; on A1 Human Adenosine GPCR it was not below 30 µM; in test [1], not below 30 µM; at Phosphodiesterase 10A2, not below 30 µM. Besides, the “percentage of apoptotic cells” value with A375 cells [2] (1.25 μM) came to 20.40 ± 4.56%; in the test with A375 cells [2] (2.5 μM), 81.10 ± 3.89%; with A375 cells [2] (5 μM) it was 88.68 ± 2.10%. Moreover, the “misfolded protein levels (ThT fluorescence)” value in the test on A375 cells [3] is listed as “maximum accumulation of misfolded proteins even at 10 μM”.

`CC(C)C[C@@H](C(=O)OCc1ccccc1)N1Cc2ccccc2NC1=O` [Compound 63, Benzyl (S)-4-Methyl-2-(2-oxo-1,4-dihydroquinazolin-3(2H)-yl)pentanoate]: the EC50 came out at 2.29 ± 1.12 µM with A375, 36.4 ± 3.15 µM in the test with A549, 27.9 ± 2.44 µM in the test on MCF7 and 23.2 ± 4.17 µM in the test with SHSY5Y. The IC50 is 0.11 ± 0.09 µM on BRD4(BD1), not below 30 µM on A1 Human Adenosine GPCR, not below 30 µM in test [1] and not below 30 µM at Phosphodiesterase 10A2. For the same compound, the results for the “percentage of apoptotic cells” value in the test with A375 cells [2] (1.25 μM), in the test on A375 cells [2] (2.5 μM) and in the test with A375 cells [2] (5 μM) were 16.52 ± 3.24%, 58.90 ± 1.89% and 71.25 ± 0.11%, respectively. Besides, in the test on A375 cells [3], the “misfolded protein levels (ThT fluorescence)” value is “greatest increase in fluorescence at 20 μM”.
